Drawing on patent US20230312587A1, “PTERIDINONE COMPOUNDS AND USES THEREOF” (Vertex Pharmaceutical Incorporated, priority 2018, published 2023), this text covers IC50 for 23 molecules.

For this test, the system named is β-catenin-TCF-mediated reporter transcription activity in Colo 205 cells. Description: Colo 205 reporter assay (TCF/LEF luciferase). The format is cell-based. The following applies: Colo 205 TCF/LEF luciferase reporter, five hours after addition of compound, read-out: TCF reporter Colo205 IC50. The text has this:
The compounds of the invention described herein were screened using the assay procedure for β-catenin-TCF-mediated reporter transcription activity described below.
Reporter cell lines were generated by stably transfecting cells of cancer cell lines (e.g., colon cancer) with a plasmid reporter construct (From SABiosciences, a QIAGEN company) that includes TCF/LEF promoter driving expression of the firefly luciferase gene. TCF/LEF reporter constructs were made in which TCF/LEF promoter, a promoter with optimal number of TCF/LEF binding sites designed by SABiosceinces, was linked upstream of the firefly luciferase gene. This construct could also include a puromycin resistance gene as a selectable marker. This construct could also be used to stably transfect Colo 205 cells, a colon cancer cell line having a mutated APC gene that causes a constitutively active β-catenin. A control cell line was generated using another plasmid construct containing the luciferase gene under the control of a CMV basal promoter which is not activated by p-catenin.
Colo 205 Cultured cells with a stably transfected reporter construct were plated at approximately 10,000 cells per well into 384 well multi-well plates for twenty four hours. The testing compounds were then added to the wells in 2-fold serial dilutions using a twenty micromolar top concentration. A series of control wells for each cell type received only compound solvent. Five hours after the addition of compound, reporter activity for luciferase was assayed, by addition of the SteadyGlo luminescence reagent (Promega). The reporter luminescence activity was measured using Pherastar plate reader (BMG Labtech). Readings were normalized to DMSO only treated cells, and normalized activities were then used in the IC50 calculations. The Colo 205 reporter assay data are summarized in Table 45: A<0.3 μM; 0.3 μM≤B<1.0 μM; 1.0 μM≤C<5.0 μM; D≥5.0 μM
Colo 205 reporter assay data has also been obtained for certain R-isomers of Formula (I) wherein R^4 is —H or -D, and wherein the carbon to which R^3 and R^4 are attached (C2 carbon of Formula (X)) has R stereochemistry; such epimeric compounds are represented using the suffix “B” attached to the Compound described herein having the S stereochemistry at the carbon to which R^3 and R^4 are attached: […]

Molecules are shown by their SMILES. Read-outs that look alike come from different tables or passages of the source.

A word on the IC50: it is the point on the concentration scale where inhibition reaches its midpoint. On to `Cc1nc(N[C@H]2CC[C@@H](Oc3cc(F)c(F)c(F)c3)C2)nc2c1NC(=O)[C@H](C)N2C` (mixture of isomers) [Compound 259, (7S)-4,7,8-trimethyl-2-((cis-3-(3,4,5-trifluorophenoxy)cyclopentyl)amino)-7,8-dihydropteridin-6(5H)-one], for which the IC50 (Homo sapiens, COLO 205, 5 h) was at least 5000 nM.

`Cc1nc(N[C@H]2CC[C@H](Oc3cc(F)c(F)c(F)c3)C2)nc2c1NC(=O)[C@H](C)N2C` (mixture of isomers) [Compound 260, (7S)-4,7,8-trimethyl-2-((trans-3-(3,4,5-trifluorophenoxy)cyclopentyl)amino)-7,8-dihydropteridin-6(5H)-one]: the IC50 (Homo sapiens, COLO 205, 5 h) lay within 300 to 1000 nM.

For the molecule `Cc1nc(N[C@@H]2COC[C@H]2Oc2ccc(F)cc2)nc2c1NC(=O)[C@H](C)N2C` (mixture of isomers) [Compound 297, (7S)-2-((trans-4-(4-fluorophenoxy)tetrahydrofuran-3-yl)amino)-4,7,8-trimethyl-7,8-dihydropteridin-6(5H)-one], the IC50 (Homo sapiens, COLO 205, 5 h) was at least 5000 nM.

With `Cc1nc(N[C@@H]2CC[C@H](NC(=O)c3cc(F)c(F)c(F)c3)C2)nc2c1NC(=O)[C@H](C)N2C` (mixture of isomers) [Compound 298, 3,4,5-trifluoro-N-(cis-3-(((S)-4,7,8-trimethyl-6-oxo-5,6,7,8-tetrahydropteridin-2-yl)amino)cyclopentyl)benzamide], the IC50 (Homo sapiens, COLO 205, 5 h) fell in the range of 1000 to 5000 nM.

As to `Cc1nc(N[C@H]2C[C@H](Oc3ccc(F)cc3F)C2)nc2c1NC(=O)[C@H](C)N2C` (relative stereo) [Compound 295, (7S)-4,7,8-trimethyl-2-((trans-3-(2,4-drifluorophenoxy)cyclobutyl)amino)-7,8-dihydropteridin-6(5H)-one], the IC50 was below 300 nM.

As to `COC1(C2C(=O)Nc3c(C)nc(N[C@H]4C[C@H](Oc5cc(F)c(F)c(F)c5)C4)nc3N2C)CCC1` (relative stereo) [Compound 667, 7-(1-methoxycyclobutyl)-4,8-dimethyl-2-((trans-3-(3,4,5-trifluorophenoxy)cyclobutyl)amino)-7,8-dihydropteridin-6(5H)-one], the IC50 (Homo sapiens, COLO 205, 5 h) is below 300 nM.

For the molecule `COC1(C2C(=O)Nc3c(C)nc(N[C@H]4C[C@H](COc5ccc(C(F)(F)F)nc5)C4)nc3N2C)CCC1` (relative stereo) [Compound 669, 7-(1-methoxycyclobutyl)-4,8-dimethyl-2-((trans-3-(((6-(trifluoromethyl)pyridin-3-yl)oxy)methyl)cyclobutyl)amino)-7,8-dihydropteridin-6(5H)-one], the IC50 (Homo sapiens, COLO 205, 5 h) was below 300 nM.

Take `COC1(C2C(=O)Nc3c(C)nc(N[C@H]4C[C@H](Oc5ccc(C(F)(F)F)nc5)C4)nc3N2C)CCC1` (relative stereo) [Compound 671, 7-(1-methoxycyclobutyl)-4,8-dimethyl-2-((trans-3-((6-(trifluoromethyl)pyridin-3-yl)oxy)cyclobutyl)amino)-7,8-dihydropteridin-6(5H)-one]: the IC50 (Homo sapiens, COLO 205, 5 h) was below 300 nM.

For `COC1(C2C(=O)Nc3c(C)nc(N[C@H]4C[C@@H](Nc5cnc(C(F)(F)F)cn5)C4)nc3N2C)CCC1` (relative stereo) [Compound 672, 7-(1-methoxycyclobutyl)-4,8-dimethyl-2-((cis-3-((5-(trifluoromethyl)pyrazin-2-yl)amino)cyclobutyl)amino)-7,8-dihydropteridin-6(5H)-one], for the setting “Homo sapiens, COLO 205, 5 h”, the IC50 was below 300 nM.

With `COC1(C2C(=O)Nc3c(C)nc(N[C@H]4C[C@@H](Cn5nccc5C(F)(F)F)C4)nc3N2C)CC1` (relative stereo) [Compound 676, 7-(1-methoxycyclopropyl)-4,8-dimethyl-2-((cis-3-((5-(trifluoromethyl)-1H-pyrazol-1-yl)methyl)cyclobutyl)amino)-7,8-dihydropteridin-6(5H)-one], the IC50 (Homo sapiens, COLO 205, 5 h) is below 300 nM.

Turning to `Cc1nc(N[C@H]2C[C@@H](Nc3cnc(C(F)(F)F)cn3)C2)nc2c1NC(=O)C1(CCOC1)N2C` (relative stereo) [Compound 687, 4′,8′-dimethyl-2′-((cis-3-((5-(trifluoromethyl)pyrazin-2-yl)amino)cyclobutyl)amino)-4,5,5′,8′-tetrahydro-2H,6′H-spiro[furan-3,7′-pteridin]-6′-one], the IC50 (Homo sapiens, COLO 205, 5 h) fell in the range of 300 to 1000 nM.

In the case of `Cc1nc(N[C@H]2C[C@H](Cn3nccc3C(F)(F)F)C2)nc2c1NC(=O)C1(CCOC1)N2C` (relative stereo) [Compound 688, 4′,8′-dimethyl-2′-((trans-3-((5-(trifluoromethyl)-1H-pyrazol-1-yl)methyl)cyclobutyl)amino)-4,5,5′,8′-tetrahydro-2H,6′H-spiro[furan-3,7′-pteridin]-6′-one], for the setting “Homo sapiens, COLO 205, 5 h”, the IC50 is below 300 nM.

For `Cc1nc(N[C@H]2C[C@H](Oc3ccc(C(F)(F)F)nc3)C2)nc2c1NC(=O)C1(CCOC1)N2C` (relative stereo) [Compound 689, 4′,8′-dimethyl-2′-((trans-3-((6-(trifluoromethyl)pyridin-3-yl)oxy)cyclobutyl)amino)-4,5,5′,8′-tetrahydro-2H,6′H-spiro[furan-3,7′-pteridin]-6′-one], the IC50 (Homo sapiens, COLO 205, 5 h) was 300 to 1000 nM.

In the case of `Cc1nc(N[C@H]2C[C@@H](COc3ccc(C(F)(F)F)nc3)C2)nc2c1NC(=O)C1(CCOC1)N2C` (relative stereo) [Compound 697, 4′,8′-dimethyl-2′-((cis-3-(((6-(trifluoromethyl)pyridin-3-yl)oxy)methyl)cyclobutyl)amino)-4,5,5′,8′-tetrahydro-2H,6′H-spiro[furan-3,7′-pteridin]-6′-one], under “Homo sapiens, COLO 205, 5 h”, the IC50 was 300 to 1000 nM.

On to `COCC1(C)C(=O)Nc2c(C)nc(N[C@H]3C[C@H](Oc4cnc(C(F)(F)F)nc4)C3)nc2N1C` (relative stereo) [Compound 706, 7-(methoxymethyl)-4,7,8-trimethyl-2-((trans-3-((2-(trifluoromethyl)pyrimidin-5-yl)oxy)cyclobutyl)amino)-7,8-dihydropteridin-6(5H)-one], for which the IC50 is 300 to 1000 nM.

For `COCC1(C)C(=O)Nc2c(C)nc(N[C@H]3C[C@H](Oc4cnc(C(F)(F)F)nc4)C3)nc2N1C` (relative stereo) [Compound 710, 7-(methoxymethyl)-4,7,8-trimethyl-2-((trans-3-((2-(trifluoromethyl)pyrimidin-5-yl)oxy)cyclobutyl)amino)-7,8-dihydropteridin-6(5H)-one], the IC50 lay within 1000 to 5000 nM.

On to `COC1(C2C(=O)Nc3c(C)nc(N[C@H]4C[C@H](Oc5cnc(C(F)(F)F)nc5)C4)nc3N2C)CCC1` (relative stereo) [Compound 718, 7-(1-methoxycyclobutyl)-4,8-dimethyl-2-((trans-3-((2-(trifluoromethyl)pyrimidin-5-yl)oxy)cyclobutyl)amino)-7,8-dihydropteridin-6(5H)-one], for which the IC50 (Homo sapiens, COLO 205, 5 h) was below 300 nM.

For `COCC1(C)C(=O)Nc2c(C)nc(N[C@H]3C[C@H](Oc4cc(F)c(F)c(F)c4)C3)nc2N1C` (relative stereo) [Compound 719, 7-(methoxymethyl)-4,7,8-trimethyl-2-((trans-3-(3,4,5-trifluorophenoxy)cyclobutyl)amino)-7,8-dihydropteridin-6(5H)-one], the IC50 (Homo sapiens, COLO 205, 5 h) is below 300 nM.

Take `COCC1(C)C(=O)Nc2c(C)nc(N[C@H]3C[C@H](Oc4cc(F)c(F)c(F)c4)C3)nc2N1C` (relative stereo) [Compound 720, 7-(methoxymethyl)-4,7,8-trimethyl-2-((trans-3-(3,4,5-trifluorophenoxy)cyclobutyl)amino)-7,8-dihydropteridin-6(5H)-one]: the IC50 was 300 to 1000 nM.

Regarding `COCC1(C)C(=O)Nc2c(C)nc(N[C@H]3C[C@H](Oc4ccc(C(F)(F)F)nc4)C3)nc2N1C` (relative stereo) [Compound 724, 7-(methoxymethyl)-4,7,8-trimethyl-2-((trans-3-((6-(trifluoromethyl)pyridin-3-yl)oxy)cyclobutyl)amino)-7,8-dihydropteridin-6(5H)-one], the IC50 (Homo sapiens, COLO 205, 5 h) was 300 to 1000 nM.

As to `C[C@H]1C(=O)Nc2cnc(NC3CC(C)(OCc4cc(F)c(F)c(F)c4)C3)nc2N1C` (stereo in doubt) [Compound 289, (S)-7,8-dimethyl-2-((cis-3-methyl-3-((3,4,5-trifluorobenzyl)oxy)cyclobutyl)amino)-7,8-dihydropteridin-6(5H)-one], the IC50 was at least 5000 nM.

For `Cc1nc(NC2CC(C)(OCc3cc(F)c(F)c(F)c3)C2)nc2c1NC(=O)[C@H](C)N2C` (stereo in doubt) [Compound 290, (7S)-4,7,8-trimethyl-2-((cis-3-methyl-3-((3,4,5-trifluorobenzyl)oxy)cyclobutyl)amino)-7,8-dihydropteridin-6(5H)-one], the IC50 was at least 5000 nM.

Take `CNc1ccc(Cn2cc(CNc3nc(C)c4c(n3)N(C)[C@@H](C)C(=O)N4)cn2)cn1` [Compound 10, (7S)-4,7,8-trimethyl-2-(((1-((6-(methylamino)pyridin-3-yl)methyl)-1H-pyrazol-4-yl)methyl)amino)-7,8-dihydropteridin-6(5H)-one]: the IC50 (Homo sapiens, COLO 205, 5 h) was at least 5000 nM.
